# According to patent US10758534B2 (Vertex Pharmaceuticals Incorporated, priority 2014, dated 2020):
# Target: T1, F508del (Homo sapiens, UniProt P13569, DEL508-508)
# T1 construct: expressed in transfected cells
# Assay: Protocol 1: membrane potential optical assay (FLIPR III, voltage sensing dye), identification of potentiator compounds
# Format: cell-based
# Details: Table 3, compounds of Table 1
# Summary of the method: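 Membrane potential in forskolin-activated, temperature-rescued F508del NIH 3T3 cells is followed with a voltage-sensing dye on FLIPR III. A chloride ion gradient created at the single addition step provides the driving force, after prior compound treatment.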
# T1 sequence (P13569 with tags, fused parts or gaps DEL508-508): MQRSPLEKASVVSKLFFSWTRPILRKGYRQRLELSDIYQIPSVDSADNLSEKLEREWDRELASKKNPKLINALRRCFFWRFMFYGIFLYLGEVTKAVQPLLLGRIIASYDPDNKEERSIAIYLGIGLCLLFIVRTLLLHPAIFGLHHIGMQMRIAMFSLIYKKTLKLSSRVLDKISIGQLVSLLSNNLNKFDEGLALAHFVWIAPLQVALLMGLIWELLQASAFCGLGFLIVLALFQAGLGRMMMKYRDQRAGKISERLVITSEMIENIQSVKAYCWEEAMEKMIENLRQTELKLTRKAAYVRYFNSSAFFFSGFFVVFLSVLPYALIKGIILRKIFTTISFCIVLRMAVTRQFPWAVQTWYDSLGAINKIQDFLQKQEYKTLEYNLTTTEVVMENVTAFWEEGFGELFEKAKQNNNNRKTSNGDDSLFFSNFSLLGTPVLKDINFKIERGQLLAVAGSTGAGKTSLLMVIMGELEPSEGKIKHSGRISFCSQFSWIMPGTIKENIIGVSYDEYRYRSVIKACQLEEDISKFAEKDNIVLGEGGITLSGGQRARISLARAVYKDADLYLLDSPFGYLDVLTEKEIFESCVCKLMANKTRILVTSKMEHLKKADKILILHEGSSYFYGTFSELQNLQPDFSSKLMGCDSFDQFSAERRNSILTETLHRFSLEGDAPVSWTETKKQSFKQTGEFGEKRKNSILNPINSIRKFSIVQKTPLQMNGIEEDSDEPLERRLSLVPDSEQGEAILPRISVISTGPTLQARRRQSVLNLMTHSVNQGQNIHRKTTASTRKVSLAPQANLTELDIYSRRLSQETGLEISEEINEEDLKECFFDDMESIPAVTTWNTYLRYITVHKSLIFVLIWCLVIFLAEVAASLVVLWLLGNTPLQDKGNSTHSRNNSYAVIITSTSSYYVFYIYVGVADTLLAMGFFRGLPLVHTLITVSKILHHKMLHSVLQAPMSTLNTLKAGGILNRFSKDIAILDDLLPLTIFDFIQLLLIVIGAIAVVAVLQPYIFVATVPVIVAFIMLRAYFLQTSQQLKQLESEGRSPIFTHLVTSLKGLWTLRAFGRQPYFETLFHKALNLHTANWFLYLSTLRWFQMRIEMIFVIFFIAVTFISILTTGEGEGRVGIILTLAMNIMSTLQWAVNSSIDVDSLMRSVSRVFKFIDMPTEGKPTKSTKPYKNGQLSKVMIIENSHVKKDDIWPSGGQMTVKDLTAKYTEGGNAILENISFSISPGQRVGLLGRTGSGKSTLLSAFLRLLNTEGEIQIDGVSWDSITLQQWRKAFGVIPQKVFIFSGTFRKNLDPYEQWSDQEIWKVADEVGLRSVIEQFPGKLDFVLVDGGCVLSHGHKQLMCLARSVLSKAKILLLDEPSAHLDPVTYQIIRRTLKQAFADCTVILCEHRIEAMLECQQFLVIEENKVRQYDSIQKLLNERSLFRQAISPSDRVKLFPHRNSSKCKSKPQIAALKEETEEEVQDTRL
row,SMILES,EC30
1,"CC(C)Oc1ccc(-c2ccc(C(=O)NS(=O)(=O)c3cccc(N)n3)c(N3C(C)CCC3(C)C)n2)cn1 (centres unmarked) [Compound 1040, N-[(6-amino-2-pyridyl)sulfonyl]-6-(6-isopropoxy-3-pyridyl)-2-(2,2,5-trimethylpyrrolidin-1-yl)pyridine-3-carboxamide]",+++ (“+++” means <3 uM)
2,"CC(C)COc1cc(F)cc(-c2ccc(C(=O)NS(=O)(=O)c3ccn[nH]3)c(N3C[C@@H](C)CC3(C)C)n2)c1 [Compound 1041, 6-(3-fluoro-5-isobutoxy-phenyl)-N-(1H-pyrazol-5-ylsulfonyl)-2-[(4S)-2,2,4-trimethylpyrrolidin-1-yl]pyridine-3-carboxamide]",+++ (“+++” means <3 uM)
3,"CC1CCN(c2nc(-c3cc(F)cc(OC(C)C)c3)ccc2C(=O)NS(=O)(=O)c2cc[nH]n2)CC1 [Compound 1042, 6-(3-fluoro-5-isopropoxy-phenyl)-2-(4-methyl-1-piperidyl)-N-(1H-pyrazol-3-ylsulfonyl)pyridine-3-carboxamide]",+++ (“+++” means <3 uM)
4,"CC(C)(C)c1ccc(C(=O)NS(=O)(=O)c2cccc(N)n2)c(Oc2ccccc2)n1 [Compound 1046, N-[(6-amino-2-pyridyl)sulfonyl]-6-tert-butyl-2-phenoxy-pyridine-3-carboxamide]",++ (“++” means between 3 uM and 10 uM)
5,"CC(C)COc1cc(F)cc(-c2ccc(C(=O)NS(=O)(=O)c3cccc(N)n3)c(N3CC[C@@H](C)C3)n2)c1 [Compound 1051, N-[(6-amino-2-pyridyl)sulfonyl]-6-(3-fluoro-5-isobutoxy-phenyl)-2-[(3R)-3-methylpyrrolidin-1-yl]pyridine-3-carboxamide]",+++ (“+++” means <3 uM)
6,"Cc1cc(C)c(Oc2nc(C3=CCC(C)CC3)ccc2C(=O)NS(=O)(=O)c2ccc[nH]c2=O)c(C)c1 (centres unmarked) [Compound 1052, 6-(4-methylcyclohexen-1-yl)-N-[(2-oxo-1H-pyridin-3-yl)sulfonyl]-2-(2,4,6-trimethylphenoxy)pyridine-3-carboxamide]",+++ (“+++” means <3 uM)
7,"CC(C)COc1cc(F)cc(-c2ccc(C(=O)NS(=O)(=O)c3cccc(N)n3)c(OCC3(F)COC3)n2)c1 [Compound 1053, N-[(6-amino-2-pyridyl)sulfonyl]-6-(3-fluoro-5-isobutoxy-phenyl)-2-[(3-fluorooxetan-3-yl)methoxy]pyridine-3-carboxamide]",++ (“++” means between 3 uM and 10 uM)
8,"CC(C)CNc1cccc(-c2ccc(C(=O)NS(=O)(=O)c3cccc(N)n3)c(N3CC(C)CC3(C)C)n2)n1 (centres unmarked) [Compound 1059, N-[(6-amino-2-pyridyl)sulfonyl]-6-[6-(isobutylamino)-2-pyridyl]-2-(2,2,4-trimethylpyrrolidin-1-yl)pyridine-3-carboxamide]",+++ (“+++” means <3 uM)
9,"CC(C)COc1cc(F)cc(-c2ccc(C(=O)NS(=O)(=O)c3ccn[nH]3)c(N3CCC[C@@H]3c3ccccc3)n2)c1 [Compound 1060, 6-(3-fluoro-5-isobutoxy-phenyl)-2-[(2R)-2-phenylpyrrolidin-1-yl]-N-(1H-pyrazol-5-ylsulfonyl)pyridine-3-carboxamide]",+++ (“+++” means <3 uM)
10,"CC(C)COc1cc(F)cc(-c2ccc(C(=O)NS(=O)(=O)c3cccc(N)n3)c(N3CCC4(CC4)C3)n2)c1 [Compound 1061, N-[(6-amino-2-pyridyl)sulfonyl]-2-(6-azaspiro[2.4]heptan-6-yl)-6-(3-fluoro-5-isobutoxy-phenyl)pyridine-3-carboxamide]",+++ (“+++” means <3 uM)

# Further lines, results first:
row,EC30,SMILES
1,+++ (“+++” means <3 uM),"Cc1cc(C)c(CN2CCc3ccccc3CC2C(=O)NS(=O)(=O)c2ccccc2)c(C)c1 (centres unmarked) [Compound 1039, N-(benzenesulfonyl)-3-[(2,4,6-trimethylphenyl)methyl]-1,2,4,5-tetrahydro-3-benzazepine-4-carboxamide]"
2,+++ (“+++” means <3 uM),"CC(C)Oc1ccc(-c2ccc(C(=O)NS(=O)(=O)c3cccc(N)n3)c(N3CCC(C(F)(F)F)CC3)n2)cn1 [Compound 1043, N-[(6-amino-2-pyridyl)sulfonyl]-6-(6-isopropoxy-3-pyridyl)-2-[4-(trifluoromethyl)-1-piperidyl]pyridine-3-carboxamide]"
3,+++ (“+++” means <3 uM),"COc1ncc(-c2ccc(C(=O)NS(=O)(=O)c3cc[nH]n3)c(Oc3c(C)cc(C)cc3C)n2)cc1C [Compound 1044, 6-(6-methoxy-5-methyl-3-pyridyl)-N-(1H-pyrazol-3-ylsulfonyl)-2-(2,4,6-trimethylphenoxy)pyridine-3-carboxamide]"
4,++ (“++” means between 3 uM and 10 uM),"CCC(Oc1nc(C(C)(C)C)ccc1C(=O)NS(=O)(=O)c1cccc(N)n1)c1ccccc1 (centres unmarked) [Compound 1045, N-[(6-amino-2-pyridyl)sulfonyl]-6-tert-butyl-2-(1-phenylpropoxy)pyridine-3-carboxamide]"
5,+++ (“+++” means <3 uM),"Cc1ccc(-c2ccc(C(=O)NS(=O)(=O)c3nccnc3N)c(Oc3c(C)cc(C)cc3C)n2)cc1 [Compound 1047, N-(3-aminopyrazin-2-yl)sulfonyl-6-(p-tolyl)-2-(2,4,6-trimethylphenoxy)pyridine-3-carboxamide]"
6,+++ (“+++” means <3 uM),Cc1cc(C)c(Oc2nc(-c3ccc4c(c3)CCO4)ccc2C(=O)NS(=O)(=O)c2cccc(N)n2)c(C)c1 [Compound 1048]
7,+++ (“+++” means <3 uM),Cc1cc(C)c(Oc2nc(-c3cc(F)ccc3O)ccc2C(=O)NS(=O)(=O)c2cccc(N)n2)c(C)c1 [Compound 1049]
8,++ (“++” means between 3 uM and 10 uM),"Cc1cc(C)c(Oc2nc(C3CC3)ccc2C(=O)NS(=O)(=O)c2cccc(N)n2)c(C)c1 [Compound 1050, N-[(6-amino-2-pyridyl)sulfonyl]-6-cyclopropyl-2-(2,4,6-trimethylphenoxy)pyridine-3-carboxamide]"
9,+++ (“+++” means <3 uM),"Cc1cc(C)c(Oc2nc(C(C)(C)C)ccc2C(=O)NS(=O)(=O)c2cccc(NCCN)n2)c(C)c1 [Compound 1054, N-[[6-(2-aminoethylamino)-2-pyridyl]sulfonyl]-6-tert-butyl-2-(2,4,6-trimethylphenoxy)pyridine-3-carboxamide]"
10,++ (“++” means between 3 uM and 10 uM),"Cc1cc(C)c(CN2CCc3ccccc3CC2C(=O)NS(=O)(=O)c2cccc(N)n2)c(C)c1 (centres unmarked) [Compound 1055, N-[(6-amino-2-pyridyl)sulfonyl]-3-[(2,4,6-trimethylphenyl)methyl]-1,2,4,5-tetrahydro-3-benzazepine-4-carboxamide]"
11,+++ (“+++” means <3 uM),"Cc1cc(C)c(Oc2nc(-c3ccc4ccn(C)c4c3)ccc2C(=O)NS(=O)(=O)c2cccc(N)n2)c(C)c1 [Compound 1056, N-[(6-amino-2-pyridyl)sulfonyl]-6-(1-methylindol-6-yl)-2-(2,4,6-trimethylphenoxy)pyridine-3-carboxamide]"
12,+ (“+” means greater than 10 uM),"Cc1cc(C)c(Oc2nc(-c3ccnn3C)ccc2C(=O)NS(=O)(=O)c2cccc(N)n2)c(C)c1 [Compound 1057, N-[(6-amino-2-pyridyl)sulfonyl]-6-(2-methylpyrazol-3-yl)-2-(2,4,6-trimethylphenoxy)pyridine-3-carboxamide]"
13,+++ (“+++” means <3 uM),"CC1CN(c2nc(-c3cccc(OCC(C)(C)C)n3)ccc2C(=O)NS(=O)(=O)c2cccc(N)n2)C(C)(C)C1 (centres unmarked) [Compound 1062, N-[(6-amino-2-pyridyl)sulfonyl]-6-[6-(2,2-dimethylpropoxy)-2-pyridyl]-2-(2,2,4-trimethylpyrrolidin-1-yl)pyridine-3-carboxamide]"
